Experimental data taken from patent EP4813464A2, “PEPTIDE FOR PREVENTING AND TREATING FIBROSIS” (priority 2021, dated 2022).

How the values were obtained:
[1] = type: in vivo, C57BL/6J mice; details: bleomycin mice, treatment from day 7, day 0 to day 22; peptides 30 mg/kg subcutaneously three times a week, nintedanib 100 mg/kg orally daily; FIG. 8b
Text: Based on results of measuring the change in body weight from day 0 to day 22, the body weight decreased until day 7 after administration of bleomycin, but increased after treatment with the peptide according to the present invention and nintedanib (FIG. 8b), and weight loss due to toxicity of the peptide according to the present invention and nintedanib was not observed.

[2] = test system: animal model in which lung disease was induced with bleomycin; test: Bleomycin-induced lung disease model, lung histology; type: in vivo, C57BL/6J mice; details: day 22; peptides 30 mg/kg subcutaneously three times a week, nintedanib 100 mg/kg orally daily; peptides compared to NT group and nintedanib group; FIG. 8c
Procedure: C57BL/6J mice (male, 7 weeks old) were purchased from Charles River. Mice were anesthetized by intraperitoneal administration of a mixture of Imalgene (ketamine, 100 mg/kg)/Rompun (xylazine, 20 mg/kg), and a total of 50 µl of bleomycin sulfate (1.45 mg/kg, MBcell, CA, USA) was injected intratracheally once, and saline was injected intratracheally in the normal group (day 0). On day 7, mice were divided into groups, each consisting of eight. PBS (NT), SEQ ID NO: 1 (30 mg/kg), and SEQ ID NO: 2 (30 mg/kg) were administered subcutaneously three times a week, and nintedanib (Fluorochem Ref = 050741, 100 mg/kg) was administered orally daily. Each of the peptides of SEQ ID NO: 1 and SEQ ID NO: 2 was administered after dissolution in water for injection, and nintedanib was administered after mixing with water containing 0.5% hydroxyethylcellulose (Sigma; lot BCBV5033) and 0.01% Tween 80 (Sigma; lot BCBR6211V). While administering the drug for 21 days, body weight was measured every 2 days, and whether there were other clinical symptoms were checked.
After mice were sacrificed with isoflurane on day 22, lung tissue was excised therefrom and histological analysis was performed. […]
In order to quantify the fibrotic change, the area of the red (fibrotic portion) was quantified in the sample stained with Sirius Red.

COC(=O)c1ccc2c(c1)NC(=O)/C2=C(\Nc1ccc(N(C)C(=O)CN2CCN(C)CC2)cc1)c1ccccc1 [nintedanib]
change in body weight [1]: increased | fibrous deposition in the lungs (Sirius Red and hematoxylin/phloxine staining, microscopy) [2]: some therapeutic effect, but a lot of deposited fibrous tissue was still observed
